Assay results reported in ChEMBL document CHEMBL1201862, “PubChem BioAssay data set” (2004).
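Assay format: 96-well plates, 48-hour exposure. GI50 is the concentration that inhibits growth by half.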 The source made the active and inactive calls. Rule as the data show it: active = GI50 up to about 1.1 µM and inactive = higher.

Columns and labels:
Test in all cases: NCI anticancer screen, dose series, 48 h
786-0 = system: 786-0
HL-60 = system: HL-60
HOP-92 = system: HOP-92
HT-29 = system: HT-29
LOX IMVI = system: LOX IMVI
M14 = system: M14
NCI-H226 = system: NCI-H226
NCI-H460 = system: NCI-H460
NCI-H522 = system: NCI-H522
OVCAR-5 = system: OVCAR-5
RXF 393 = system: RXF 393
SF-295 = system: SF-295
SF-539 = system: SF-539
SK-OV-3 = system: SK-OV-3
SW-620 = system: SW-620
A498 = system: A498

Measured: GI50

COc1cc(C=C2C(=O)NC(=O)NC2=O)cc(OC)c1OC
inactive: 786-0 > 100 µM | HL-60 > 100 µM | HOP-92 > 100 µM | HT-29 > 100 µM | LOX IMVI > 100 µM | M14 > 100 µM | NCI-H226 > 100 µM | NCI-H460 > 100 µM | NCI-H522 > 100 µM | OVCAR-5 > 100 µM | RXF 393 > 100 µM | SF-295 > 100 µM | SF-539 > 100 µM | SK-OV-3 > 100 µM | SW-620 > 100 µM

CCOC(=O)C12CN(C34CC5CC(CC(C5)C3)C4)CC(C(=O)OCC)(C1=O)C(c1ccccc1)OC2c1ccccc1 (stereo not drawn)
inactive: 786-0 > 100 µM | A498 > 100 µM | HL-60 9.25 µM | HOP-92 2.04 µM | HT-29 61 µM | LOX IMVI 3.54 µM | M14 > 100 µM | NCI-H226 89.7 µM | NCI-H460 > 100 µM | OVCAR-5 > 100 µM | RXF 393 19.4 µM | SF-295 > 100 µM | SF-539 > 10 µM | SK-OV-3 > 100 µM | SW-620 > 100 µM

CCCCN(CCCC)C(=Nc1ccccc1)N(CCCC)CCCC
inactive: 786-0 3.3 µM | A498 9.62 µM | HL-60 1.79 µM | HOP-92 1.62 µM | HT-29 2.36 µM | LOX IMVI 3.15 µM | NCI-H460 3.34 µM | NCI-H522 2.17 µM | OVCAR-5 5.78 µM | RXF 393 5.02 µM | SF-295 5.38 µM | SF-539 11.4 µM | SK-OV-3 8.43 µM | SW-620 3.54 µM

Cc1c(-c2coc(-c3ccc([N+](=O)[O-])cc3)n2)c(=O)n(-c2ccccc2)n1C
inactive: 786-0 > 100 µM | A498 > 100 µM | HL-60 > 100 µM | HOP-92 > 100 µM | HT-29 > 100 µM | LOX IMVI > 100 µM | M14 > 100 µM | NCI-H226 > 100 µM | NCI-H460 > 100 µM | NCI-H522 > 100 µM | OVCAR-5 > 100 µM | SF-295 > 100 µM | SF-539 > 100 µM | SK-OV-3 > 100 µM

O=C(c1ccccc1)C1S(=O)(=O)OCCOS1(=O)=O
inactive: 786-0 > 100 µM | HL-60 > 100 µM | HOP-92 > 100 µM | HT-29 > 100 µM | LOX IMVI > 100 µM | M14 > 100 µM | NCI-H522 > 100 µM | SF-295 > 100 µM | SF-539 > 100 µM | SK-OV-3 > 100 µM | SW-620 > 100 µM

Cc1ccc(NC(=O)OCC(COc2ccc(Cl)cc2Cl)OC(=O)Nc2ccc(C)cc2)cc1 (stereo not drawn)
inactive: 786-0 64.6 µM | A498 > 100 µM | HOP-92 53.7 µM | HT-29 > 100 µM | M14 > 100 µM | NCI-H226 46.3 µM | NCI-H460 > 100 µM | OVCAR-5 > 100 µM | RXF 393 79.4 µM | SF-295 > 100 µM | SF-539 89.5 µM | SK-OV-3 > 100 µM | SW-620 > 100 µM

COc1ccccc1NC(=O)CC(=O)n1nc(C)c(/N=N/c2ccccc2C(=O)O)c1C
inactive: 786-0 > 100 µM | A498 90.4 µM | HL-60 > 100 µM | HT-29 > 100 µM | LOX IMVI > 100 µM | M14 > 100 µM | NCI-H460 > 100 µM | NCI-H522 43.9 µM | OVCAR-5 > 100 µM | SF-295 > 100 µM | SF-539 > 100 µM | SK-OV-3 > 100 µM | SW-620 > 100 µM

O=C1C2c3[nH]c4ccccc4c3C3CCCCCCC3C2C(=O)N1c1ccccc1 (stereo not drawn)
inactive: 786-0 8.67 µM | A498 15.5 µM | HT-29 19.9 µM | LOX IMVI 5 µM | M14 6.85 µM | NCI-H460 4.91 µM | RXF 393 7.74 µM | SF-295 2.91 µM | SF-539 12 µM | SK-OV-3 2.44 µM | SW-620 8.61 µM

Cc1ccc(/C=N/NS(=O)(=O)c2ccccc2)cc1C
inactive: 786-0 > 100 µM | A498 59.4 µM | HL-60 > 100 µM | HOP-92 > 100 µM | HT-29 > 100 µM | LOX IMVI 88.1 µM | M14 > 100 µM | NCI-H226 > 100 µM | NCI-H460 > 100 µM | OVCAR-5 > 100 µM | RXF 393 > 100 µM | SF-295 45.7 µM | SF-539 > 100 µM | SK-OV-3 > 100 µM | SW-620 > 100 µM

CC(=O)OCCC(O[Si](c1ccccc1)(c1ccccc1)C(C)(C)C)C(C)(C)O (stereo not drawn)
inactive: 786-0 27.4 µM | A498 > 100 µM | HOP-92 24.6 µM | HT-29 27.4 µM | LOX IMVI 24 µM | M14 39 µM | NCI-H226 19.5 µM | NCI-H460 32.1 µM | NCI-H522 20 µM | OVCAR-5 > 100 µM | RXF 393 17.6 µM | SF-295 21.6 µM | SF-539 25.4 µM | SK-OV-3 42.7 µM | SW-620 54.8 µM

N#CC(C(=O)CCC(=O)Nc1ccc(Cl)c(Cl)c1)c1ccc(Cl)cc1 (stereo not drawn)
inactive: 786-0 > 100 µM | A498 > 100 µM | HL-60 83.9 µM | HOP-92 80.9 µM | HT-29 > 100 µM | LOX IMVI > 100 µM | M14 51.4 µM | NCI-H226 > 100 µM | NCI-H460 > 100 µM | OVCAR-5 23.9 µM | RXF 393 > 100 µM | SF-295 69.5 µM | SF-539 > 100 µM | SW-620 > 100 µM

O=C1C2CCC(C2)C12CC1(c3ccccc3)C(=O)c3ccccc3N1O2 (stereo not drawn)
inactive: 786-0 > 100 µM | A498 > 100 µM | HL-60 42.1 µM | HOP-92 42.7 µM | HT-29 > 100 µM | M14 > 100 µM | NCI-H226 > 100 µM | NCI-H522 > 100 µM | RXF 393 > 100 µM | SF-295 94.6 µM | SF-539 > 100 µM | SK-OV-3 > 100 µM | SW-620 > 100 µM

CC/C=C/c1cc2cc[nH]c2c2c1C(C)C[C@@H]2C (stereo partly drawn)
inactive: 786-0 18.9 µM | A498 16.3 µM | HL-60 26.7 µM | HOP-92 24.2 µM | HT-29 28.6 µM | LOX IMVI 17.1 µM | M14 28.1 µM | NCI-H226 15.1 µM | NCI-H460 25.1 µM | NCI-H522 18.1 µM | RXF 393 17.7 µM | SF-295 24.4 µM | SF-539 21.8 µM | SK-OV-3 63.8 µM | SW-620 31.9 µM

CC(=O)OC(C[C@H](C)[C@@H]1CC[C@]2(C)C3=CCC4C(C)(C)C(=O)CC[C@]4(C)C3CCC12C)C1OC1(C)C (stereo partly drawn)
inactive: 786-0 19.7 µM | A498 17.1 µM | HL-60 7.29 µM | HOP-92 11.9 µM | HT-29 15.7 µM | LOX IMVI 27.9 µM | M14 20.1 µM | NCI-H226 13.6 µM | NCI-H522 12.9 µM | OVCAR-5 16.7 µM | RXF 393 15.1 µM | SF-295 22.7 µM | SF-539 41.4 µM | SK-OV-3 13 µM | SW-620 34.1 µM
